# Structures can show the parent of a compound that is named as a salt.
# Molecular target: T1, Human thrombin (Homo sapiens, UniProt P00734)
# T1 construct: purchased Haematologic Technologies Inc
# Experiment: Thrombin protease activity inhibition, chromogenic substrate S-2238
# Assay type: biochemical
# Conditions: 3 nM thrombin, 125 μM S-2238, 10 min pre-incubation, RT
# In short: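 Thrombin at 3 nM final in 0.05 M Tris pH 7.4, 0.015 M NaCl, 0.01% PEG-8000, at room temperature; compounds as ten-point three-fold dilutions.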
row,SMILES,IC50
1,"C=CCOC(=O)N1CCC(c2n[nH]c(NCc3ccc(Cl)s3)c2C)CC1 [Entry 271, prop-2-en-1-yl 4-(5-[(5-chlorothiophen-2-yl)methyl]amino-4-methyl-1H-pyrazol-3-yl)piperidine-1-carboxylate]",> 100 µM
2,"CC(C)(C)OC(=O)N1CCCC1(C)c1cc(NCc2ccc(Cl)s2)n(C(=O)c2ccsc2)n1 (stereo not shown) [Entry 276, tert-butyl 2-(5-[(5-chlorothiophen-2-yl)methyl]amino-1-(thiophene-3-carbonyl)-1H-pyrazol-3-yl)-2-methylpyrrolidine-1-carboxylate]",> 100 µM
3,"O=S(=O)(N1CCOCC1)N1CCC(c2cc(NCc3ccc(Cl)s3)[nH]n2)CC1 [Entry 207, N-[(5-chlorothiophen-2-yl)methyl]-3-[1-(morpholine-4-sulfonyl)piperidin-4-yl]-1H-pyrazol-5-amine]",> 100 µM
4,"O=C(N1CCOCC1)N1CCC(c2cc(NCc3ccc(Cl)s3)[nH]n2)CC1 [Entry 203, N-[(5-chlorothiophen-2-yl)methyl]-3-[1-(morpholine-4-carbonyl)piperidin-4-yl]-1H-pyrazol-5-amine]",> 100 µM
5,"COc1ccccc1C(=O)n1nc(C2CCCO2)cc1NCc1ccc(Cl)s1 (stereo not shown) [Entry 156, N-[(5-chlorothiophen-2-yl)methyl]-1-(2-methoxybenzoyl)-3-(oxolan-2-yl)-1H-pyrazol-5-amine]",< 0.1 µM
6,"CC(C)(C)OC(=O)N1CCCC(C)(c2cc(NCc3ccc(Cl)s3)n(C(=O)C(C)(C)CO)n2)C1 (stereo not shown) [Entry 282, tert-butyl 3-(5-[(5-chlorothiophen-2-yl)methyl]amino-1-(3-hydroxy-2,2-dimethylpropanoyl)-1H-pyrazol-3-yl)-3-methylpiperidine-1-carboxylate]",< 0.1 µM
7,"CC(C)(C)OC(=O)N1CCC(C)(c2cc(NCc3ccc(Cl)s3)n(C(=O)C(C)(C)C)n2)CC1 [Entry 291, tert-butyl 4-(5-[(5-chlorothiophen-2-yl)methyl]amino-1-(2,2-dimethylpropanoyl)-1H-pyrazol-3-yl)-4-methylpiperidine-1-carboxylate]",< 0.1 µM
8,"COc1ccccc1C(=O)n1nc(C2CCCN2C(=O)C(C)(C)C)cc1NCc1ccc(Cl)s1 (stereo not shown) [Entry 90, 1-[2-(5-[(5-chlorothiophen-2-yl)methyl]amino-1-(2-methoxybenzoyl)-1H-pyrazol-3-yl)pyrrolidin-1-yl]-2,2-dimethylpropan-1-one]",0.1 to 1 µM
9,"C=CCOC(=O)N1CCN(S(C)(=O)=O)CC1c1cc(NCc2ccc(Cl)s2)n(C(=O)C(C)(C)C)n1 (stereo not shown) [Entry 246, prop-2-en-1-yl 2-(5-[(5-chlorothiophen-2-yl)methyl]amino-1-(2,2-dimethylpropanoyl)-1H-pyrazol-3-yl)-4-methanesulfonylpiperazine-1-carboxylate]",> 100 µM
10,"O=C(c1cccc2c1OCCO2)n1nc(C2CCNCC2)cc1NCc1ccc(Cl)s1 [Entry 143, N-[(5-chlorothiophen-2-yl)methyl]-1-(2,3-dihydro-1,4-benzodioxine-5-carbonyl)-3-(piperidin-4-yl)-1H-pyrazol-5-amine hydrochloride]",1 to 10 µM
11,"COc1ccccc1C(=O)n1nc(C2CCCN(C(=O)OC(C)(C)C)C2)cc1NCc1ccc(Cl)s1 (stereo not shown) [Entry 281, tert-butyl 3-(5-[(5-chlorothiophen-2-yl)methyl]amino-1-(2-methoxybenzoyl)-1H-pyrazol-3-yl)piperidine-1-carboxylate]",< 0.1 µM
12,"C=CCOC(=O)N1CCN(S(C)(=O)=O)CC1c1cc(NCc2ccc(Cl)s2)n(C(=O)c2cscn2)n1 (stereo not shown) [Entry 242, prop-2-en-1-yl 2-(5-[(5-chlorothiophen-2-yl)methyl]amino-1-(1,3-thiazole-4-carbonyl)-1H-pyrazol-3-yl)-4-methanesulfonylpiperazine-1-carboxylate]",0.1 to 1 µM
13,"O=C(N1CCOCC1)N1CCC(c2cc(NCc3ccc(Cl)s3)n(C(=O)N3CCOCC3)n2)CC1 [Entry 168, N-[(5-chlorothiophen-2-yl)methyl]-1-(morpholine-4-carbonyl)-3-[1-(morpholine-4-carbonyl)piperidin-4-yl]-1H-pyrazol-5-amine]",1 to 10 µM

# Reference: US10532995B2, “Substituted pyrazole compounds as serine protease inhibitors” (VERSEON CORPORATION, priority 2015, dated 2020)
